The source made the active and inactive calls. No rule for the calls is given here.
Biological target: Sphingosine 1-phosphate receptor 1 (Homo sapiens) (UniProt P21453)
Experiment: S1P1 agonism potentiation – cell-based, potentiator mode, 60K MLSMR set, dose response (AID 466)
Conditions: S1P1 cell assay, potentiation of agonist response

Chain of Sphingosine 1-phosphate receptor 1 (Homo sapiens) (P21453 whole entry, looked up): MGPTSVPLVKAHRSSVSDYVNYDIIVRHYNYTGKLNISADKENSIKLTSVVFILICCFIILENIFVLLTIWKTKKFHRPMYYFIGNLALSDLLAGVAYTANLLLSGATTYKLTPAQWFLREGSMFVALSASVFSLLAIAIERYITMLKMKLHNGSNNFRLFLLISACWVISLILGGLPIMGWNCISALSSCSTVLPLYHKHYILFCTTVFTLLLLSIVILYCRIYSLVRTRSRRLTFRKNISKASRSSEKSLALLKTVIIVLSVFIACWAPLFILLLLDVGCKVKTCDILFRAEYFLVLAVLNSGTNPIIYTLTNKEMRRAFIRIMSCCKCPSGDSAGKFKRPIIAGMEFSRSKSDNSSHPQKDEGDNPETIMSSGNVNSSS

Row | Compound | EC50
1 | Cc1ccc(NC(=O)c2cc(-c3ccco3)on2)cc1C | 5.02 µM
2 | CC1(C)CC(=O)C(C=Nc2ccc3[nH]ncc3c2)=C(O)C1 | 6.01 µM
3 | COc1ccc(N=c2scc(-c3ccc(S(=O)(=O)N4CCOCC4)cc3)n2CCCO)cc1 | inactive
4 | CC(=O)Oc1ccc(N2C(=O)C3C(C2=O)C2(C)C=CC3(C)O2)cc1 (stereo not given) | inactive
5 | COc1ccc(/C(O)=C2/C(=O)C(=O)N(CC3CCCO3)C2c2cccc(OC)c2)cc1 (stereo not given) | > 95 µM (inactive)
6 | CCOC(=O)C1CCN(c2ncnc3c2oc2ccccc23)CC1 | inactive
7 | CNc1oc(-c2ccc(OCc3ccccc3)cc2)nc1C#N | 3.24 µM
8 | c1ccc2c(c1)CCN(c1ncnc3c1[nH]c1ccccc13)C2 | 1.18 µM
9 | COc1ccc(N2C(=O)CC(Sc3ncn[nH]3)C2=O)c(OC)c1 (stereo not given) | inactive
10 | O=C1C2C3C=CC(CO)(O3)C2C(=O)N1c1ccccc1-c1ccccc1 (stereo not given) | 6.82 µM
11 | Cc1cc(N2CCOCC2)nc(NCc2ccccc2)n1 | inactive
12 | Cc1ccc2[nH]c3c(N4CCCCCC4)ncnc3c2c1 | 4.14 µM
13 | COC(=O)CC1SC(=O)NC1=Nc1ccccc1 (stereo not given) | > 95 µM (inactive)
14 | CCC(=NCCOc1ccc(Cl)cc1)c1c(O)n(C)c(=O)n(C)c1=O | 5.34 µM
15 | CC(=O)c1ccc(NC(=O)N2CCN(c3cccc(Cl)c3)CC2)cc1 | 9.84 µM
16 | C/C(N)=C(/C#N)C(=O)CSc1nc2cc(Cl)ccc2s1 | inactive
17 | NC(=O)c1ccc(OCC(F)(F)C(F)(F)C(F)(F)C(F)(F)C(F)(F)C(F)F)cc1 | 7.96 µM
18 | CC(C)Cn1c(N)c(C(=O)CSc2ccc3c(c2)OCCO3)c(=O)n(C)c1=O | inactive

Row | Compound | EC50
19 | C/C(N)=C(/C#N)C(=O)CSc1nnc(SCc2ccc(Cl)cc2)s1 | 9.63 µM
20 | Cc1nn(Cc2ccc(Cl)c(Cl)c2)c(C)c1NC(=O)c1cc(-c2ccco2)on1 | 5.57 µM
21 | CCCCc1ccc(C2C(C#N)=C(N)SC(N)=C2C#N)s1 | inactive
22 | CCC(=NC(C)c1ccccc1)c1c(O)n(C)c(=O)n(C)c1=O (stereo not given) | inactive
23 | CCOC(=O)c1cccc2c1-c1ccccc1/C2=N/O | inactive
24 | CC(C)c1ccc2oc(-c3cc(N)ccc3O)nc2c1 | 9.39 µM
25 | COc1ccc(/C=N/O)cc1COc1ccc(NC(C)=O)cc1 | > 95 µM (inactive)
26 | CC(C)c1ccc(OCc2nc(-c3ccccn3)no2)c(Br)c1 | 4.43 µM
27 | CCC(=NCc1ccc2c(c1)OCO2)c1c(O)n(C2CCCCC2)c(=O)[nH]c1=O | 8.66 µM
28 | CCOc1ccc(C(C)=O)cc1N1C(=O)C2C3C=CC(O3)C2C1=O (stereo not given) | inactive
29 | Cn1nc(CC(=O)Nc2ccc3c(c2)OCCO3)c2ccccc2c1=O | 5.94 µM
30 | Cc1[nH]nc2c1C1(C(=O)N(Cc3ccc(Cl)cc3)c3ccccc31)C(C#N)=C(N)O2 (stereo not given) | inactive
31 | FC(F)(F)c1ccc(N2CCN(c3cc(-c4ccccc4)nc4ncnn34)CC2)nc1 | inactive
32 | CC1=C(C(=O)OCc2ccc3c(c2)OCO3)C(c2ccccc2)NC(=O)N1 (stereo not given) | 3.42 µM
33 | O=C(C1CCN(S(=O)(=O)c2cccc3cccnc23)CC1)N1CCN(c2ccc(Cl)cc2)CC1 | inactive
34 | CC1=C(C(=O)OCc2ccc3c(c2)OCO3)C(c2ccc(F)cc2)NC(=O)N1 (stereo not given) | 0.631 µM
35 | Cc1nn(Cc2ccc(Cl)c(Cl)c2)c(C)c1NC(=O)c1cc(C2CC2)on1 | inactive
